From ChEMBL document CHEMBL5729279, “Cycloalkyl-diamines for the treatment of inflammation” (2022)

Molecular target: Sigma non-opioid intracellular receptor 1 (Homo sapiens, UniProt Q99720)
Assay: Pharmacological Activity: Ki determinations were generously provided by the National Institute of Mental Health's Psychoactive Drug Screening Program (PDSP).

Sequence of Sigma non-opioid intracellular receptor 1 (Q99720 whole entry): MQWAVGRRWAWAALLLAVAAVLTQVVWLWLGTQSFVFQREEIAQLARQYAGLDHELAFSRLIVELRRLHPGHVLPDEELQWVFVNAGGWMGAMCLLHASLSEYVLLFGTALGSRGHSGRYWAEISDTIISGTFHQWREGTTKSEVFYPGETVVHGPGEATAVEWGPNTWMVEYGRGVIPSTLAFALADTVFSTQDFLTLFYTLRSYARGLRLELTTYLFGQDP

CN[C@@]1(c2ccccc2Cl)CCCCC1NCCCN1CCCC1 (stereo partly specified)
Ki: 37.2 nM
